Drawing on ChEMBL document CHEMBL1154101, “Purinergic P2X(7) receptor antagonists: Chemistry and fundamentals of biological screening” (Bioorg Med Chem, 2009), this text covers IC50 for five compounds.

Molecules are shown by their SMILES.

The target of assay [1] is T1, P2X purinoceptor 7 (Homo sapiens, UniProt Q99572).
T1 sequence (Q99572 whole entry): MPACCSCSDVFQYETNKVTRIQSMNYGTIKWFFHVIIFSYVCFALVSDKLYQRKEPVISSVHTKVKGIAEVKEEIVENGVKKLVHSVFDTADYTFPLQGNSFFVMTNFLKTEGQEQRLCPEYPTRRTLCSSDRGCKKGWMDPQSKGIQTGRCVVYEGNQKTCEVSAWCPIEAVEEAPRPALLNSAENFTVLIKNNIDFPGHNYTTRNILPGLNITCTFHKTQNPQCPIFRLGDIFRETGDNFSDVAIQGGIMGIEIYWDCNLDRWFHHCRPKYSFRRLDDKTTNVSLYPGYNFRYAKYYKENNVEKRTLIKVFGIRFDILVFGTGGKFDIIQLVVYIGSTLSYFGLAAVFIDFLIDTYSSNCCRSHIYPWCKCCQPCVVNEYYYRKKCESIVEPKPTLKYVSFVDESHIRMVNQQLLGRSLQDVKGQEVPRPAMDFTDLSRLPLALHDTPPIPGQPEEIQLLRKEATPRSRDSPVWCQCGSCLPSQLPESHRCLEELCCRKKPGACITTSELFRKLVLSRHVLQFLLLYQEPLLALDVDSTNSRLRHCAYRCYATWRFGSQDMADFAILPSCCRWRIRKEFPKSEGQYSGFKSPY
The assay can be described thus: Antagonist activity at human recombinant P2X7 receptor expressed in human 1321N1 cells assessed as inhibition of BzATP-induced pore formation flux by fluorometric assay. The class given is functional, cell-based.

Assay [2] concerns the target T1, P2X purinoceptor 7. The assay can be described thus: Antagonist activity at human recombinant P2X7 receptor expressed in human THP1 cells assessed as inhibition of BzATP-induced IL1-beta release by enzyme-linked immunosorbent assay. The class given is functional, cell-based, THP-1.
For assay [3], the target named is T1, P2X purinoceptor 7. The assay can be described thus: Antagonist activity at P2X7 receptor in human THP1 cells assessed as inhibition of BzATP-induced pore formation. It counts as functional, cell-based, THP-1.
In assay [4] the target is T2, P2X purinoceptor 7 (Rattus norvegicus, UniProt Q64663).
T2 sequence (Q64663 whole entry): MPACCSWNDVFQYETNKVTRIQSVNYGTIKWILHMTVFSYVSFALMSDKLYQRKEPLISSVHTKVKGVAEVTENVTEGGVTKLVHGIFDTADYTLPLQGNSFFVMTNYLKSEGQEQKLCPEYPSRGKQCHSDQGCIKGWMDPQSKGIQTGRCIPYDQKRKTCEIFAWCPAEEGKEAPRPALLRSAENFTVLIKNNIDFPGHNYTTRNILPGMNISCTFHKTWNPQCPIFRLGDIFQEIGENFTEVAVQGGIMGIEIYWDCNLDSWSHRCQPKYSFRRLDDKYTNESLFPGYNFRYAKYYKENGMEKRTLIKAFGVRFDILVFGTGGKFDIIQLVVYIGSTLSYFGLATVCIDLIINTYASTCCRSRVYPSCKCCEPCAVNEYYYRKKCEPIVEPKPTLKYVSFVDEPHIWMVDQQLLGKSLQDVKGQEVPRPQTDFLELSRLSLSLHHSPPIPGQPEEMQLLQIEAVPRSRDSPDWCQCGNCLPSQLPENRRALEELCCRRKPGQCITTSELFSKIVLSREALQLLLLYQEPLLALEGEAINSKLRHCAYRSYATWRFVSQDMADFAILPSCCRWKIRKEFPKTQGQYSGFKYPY
The assay can be described thus: Binding affinity at rat P2X7 receptor.

For orientation: IC50 means the concentration that gives 50% inhibition.

Take `COc1ccc(CC(=O)NC(N/C(=N/C#N)Nc2cccc3ncccc23)C(C)(C)C)cc1OC` (stereo unspecified): the values for the IC50 on P2X purinoceptor 7 [1] and on P2X purinoceptor 7 [2] were 92 nM and 156 nM, respectively. For the compound `CN([C@@H](Cc1ccc(OS(=O)(=O)c2cccc3cnccc23)cc1)C(=O)N1CCN(c2ccccc2)CC1)S(=O)(=O)c1cccc2cnccc12`, the IC50 at P2X purinoceptor 7 [3] stood at 300 nM.

For the compound `[3H]c1ccc([C@H](C)N/C(=N/C#N)Nc2cccc3ncccc23)cc1`, on P2X purinoceptor 7 [4], the IC50 came out at 10 nM. With `N=C1N[C@@H]2O[C@@H]3NC(=N)N[C@]34[C@H]([C@H](CNC(=O)c3cc(Br)c(Br)[nH]3)[C@@H](CNC(=O)c3cc(Br)c(Br)[nH]3)[C@@H]4O[C@H]3[C@H](CNC(=O)c4cc(Br)c(Br)[nH]4)[C@@H](CNC(=O)c4cc(Br)c(Br)[nH]4)[C@@H]4[C@]5(O)NC(=N)N[C@@H]5O[C@@H]5NC(=N)N[C@]453)[C@]2(O)N1` [STYLISSADINE A], the IC50 on P2X purinoceptor 7 [3] is 700 nM. The same measure, in the same setting: the same measure for `N=C1N[C@@H]2O[C@@H]3NC(=N)N[C@]34[C@H]([C@H](CNC(=O)c3cc(Br)c(Br)[nH]3)[C@@H](CNC(=O)c3cc(Br)c(Br)[nH]3)[C@@H]4O[C@H]3[C@H](CNC(=O)c4cc(Br)c(Br)[nH]4)[C@@H](CNC(=O)c4cc(Br)c(Br)[nH]4)[C@H]4[C@]5(O)NC(=N)N[C@@H]5O[C@@H]5NC(=N)N[C@]534)[C@]2(O)N1` [STYLISSADINE B]: 1800 nM.
